Read-outs that look alike come from different tables or passages of the source. Blank lines part the entries; values can stand above or below the compound they belong to.
Legend:
CB2 cannabinoid receptor = CB2 cannabinoid receptor (Mus musculus, UniProt P47936); test: biochemical; format: binding; conditions: mouse spleen membranes
Procedure: Some of the inventive analogs were tested for CB2 receptor binding affinity and for CB1 receptor affinity (to determine selectivity). […] The lower the Ki value the higher the binding affinity.
(§1) The treated membranes were subsequently used in the binding assay described below. Approximately 30 μg of membranes were incubated in silanized 96-well microtiter plate with TME containing 0.1% essentially fatty acid-free bovine serum albumin (BSA), 0.8 nM [^3H] […] Radioactivity was detected using MicroScint 20 scintillation cocktail added directly to the dried filterplates, and the filterplates were counted using a Packard Instruments Top-Count. […] Data collected from three independent experiments performed with duplicate determinations was normalized between 100% and 0% specific binding for [^3H] […] The normalized data was analyzed using a 4-parameter nonlinear logistic equation to yield IC50 values.
Silanized centrifuge tubes were used throughout to minimize receptor loss due to adsorption. The CB2 binding assay was conducted in the same manner as for the CB1 binding assay. The binding affinities (Ki) were also expressed in nanomoles (nM).

CB1 cannabinoid receptor = target: T1, CB1 cannabinoid receptor (Rattus norvegicus, UniProt P20272); test: biochemical; format: binding; conditions: for Ki: rat forebrain membranes; for Selectivity CB1: CB1 over CB2 binding selectivity (ratio of Ki)
T1 construct: membranes were prepared from rat forebrain membranes; from tissue; host or cells: rat forebrain membranes
T1 sequence (P20272 whole entry): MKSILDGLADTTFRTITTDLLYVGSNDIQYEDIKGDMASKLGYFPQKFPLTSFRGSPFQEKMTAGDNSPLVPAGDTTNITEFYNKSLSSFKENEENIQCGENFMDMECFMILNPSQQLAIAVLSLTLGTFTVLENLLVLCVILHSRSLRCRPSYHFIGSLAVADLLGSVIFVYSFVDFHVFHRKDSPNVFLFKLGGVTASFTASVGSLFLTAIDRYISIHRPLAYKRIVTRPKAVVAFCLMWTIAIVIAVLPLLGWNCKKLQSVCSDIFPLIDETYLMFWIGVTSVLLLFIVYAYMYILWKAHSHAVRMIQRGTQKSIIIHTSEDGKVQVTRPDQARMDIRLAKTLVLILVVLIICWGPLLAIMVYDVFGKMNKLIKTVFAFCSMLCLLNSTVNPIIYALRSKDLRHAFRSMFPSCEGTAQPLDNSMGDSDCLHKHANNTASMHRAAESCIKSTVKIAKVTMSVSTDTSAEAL
Procedure: Some of the inventive analogs were tested for CB2 receptor binding affinity and for CB1 receptor affinity (to determine selectivity). […] The lower the Ki value the higher the binding affinity. […]
Membranes, previously frozen at −80° C., were thawed on ice. To the stirred suspension was added three volumes of TME (25 mM Tris-HCl buffer, 5 mM MgCl2 and 1 mM EDTA) at a pH 7.4. The suspension was incubated at 4° C. for 30 min. At the end of the incubation, the membranes were pelleted and washed three times with TME.
as §1

[1] = Table 6, [3H] CP-55,940, read-out: CB2 Ki
[2] = CB1 Ki, Table 6, 0.8 nM [3H] CP-55,940
[3] = CB2 Ki, Table 6, [3H] CP-55,940
[4] = Table 10, read-out: Receptor Affinities Ki (nM) CB2
[5] = Receptor Affinities Ki (nM) CB1, Table 10
[6] = Table 6, 0.8 nM [3H] CP-55,940, read-out: CB1 Ki
[7] = Table 9, read-out: Receptor Affinities Ki (nM) CB2
[8] = Receptor Affinities Ki (nM) CB1, Table 9
[9] = Receptor Affinities Ki (nM) CB1, Table 8

Chain of CB2 cannabinoid receptor (P47936 whole entry): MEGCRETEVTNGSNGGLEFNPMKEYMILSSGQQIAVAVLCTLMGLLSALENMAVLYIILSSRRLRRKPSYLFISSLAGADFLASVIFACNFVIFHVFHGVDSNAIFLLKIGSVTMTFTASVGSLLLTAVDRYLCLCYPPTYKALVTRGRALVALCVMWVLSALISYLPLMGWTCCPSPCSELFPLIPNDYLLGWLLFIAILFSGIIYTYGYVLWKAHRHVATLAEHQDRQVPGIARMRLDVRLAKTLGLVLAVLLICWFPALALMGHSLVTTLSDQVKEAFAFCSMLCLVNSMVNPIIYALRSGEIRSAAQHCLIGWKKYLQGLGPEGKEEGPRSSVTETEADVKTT

SMILES: O=C(NN1CCCCC1)c1nc(-c2ccc(Cl)cc2Cl)n(-c2ccc(I)cc2)c1CO [Compound 1-7]
Ki (CB2 cannabinoid receptor; [1]): 1650 nM | Ki (CB1 cannabinoid receptor; [2]): 1.5 nM

SMILES: Cn1nnc(-c2ccc(-n3c(-c4ccc(Cl)cc4Cl)nc(C(=O)NN4CCCCC4)c3CO)cc2)n1 [Compound 1-21]
Ki (CB2 cannabinoid receptor; [1]): 539 nM | Ki (CB1 cannabinoid receptor; [2]): 10.5 nM

SMILES: Cc1c(C(=O)N(C)C2CCCCC2)nc(-c2ccc(Cl)cc2Cl)n1-c1ccc(-c2nnn(C)n2)cc1 [Compound 1-24]
Ki (CB2 cannabinoid receptor; [1]): 220 nM | Ki (CB1 cannabinoid receptor; [2]): 11.2 nM

SMILES: O=C(NN1CCCCC1)c1nc(-c2ccc(Cl)cc2Cl)n(-c2ccc(-c3nccs3)cc2)c1CO [Compound 1-30]
Ki (CB2 cannabinoid receptor; [1]): 1510 nM | Ki (CB1 cannabinoid receptor; [2]): 23.9 nM

SMILES: Cc1c(NC(=O)NC2CCCCC2)nc(-c2ccc(Cl)cc2Cl)n1-c1ccc(Br)cc1 [Compound 1-35]
Ki (CB2 cannabinoid receptor; [3]): 20500 nM | Ki (CB1 cannabinoid receptor; [2]): 6.9 nM

SMILES: O=C(NN1CCCCC1)c1nc(-c2ccc(Cl)cc2Cl)n(-c2ccc(C#CCO)cc2)c1CO [Compound 1-34]
Ki (CB2 cannabinoid receptor; [3]): 5360 nM | Ki (CB1 cannabinoid receptor; [2]): 23.2 nM

SMILES: CN(C(=O)Nc1nc(-c2ccc(Cl)cc2Cl)n(-c2ccc(Br)cc2)c1CO)C1CCCCC1 [Compound 1-40]
Ki (CB2 cannabinoid receptor; [1]): 1020 nM | Ki (CB1 cannabinoid receptor; [2]): 10 nM

SMILES: Cc1c(C(=O)NN2CCCCC2)nn(-c2ccc(Cl)cc2Cl)c1-c1ccc(C#Cc2cccnc2)cc1 [Compound 5-10]
Ki (CB2 cannabinoid receptor; [4]): 54 nM | Ki (CB1 cannabinoid receptor; [5]): 15 nM | Selectivity CB1 (CB1 cannabinoid receptor; Table 10): 3.6

Ki (CB2 cannabinoid receptor; [1]): 858 nM | Ki (CB1 cannabinoid receptor; [6]): 5210 nM
SMILES: CN(C(=O)c1nc(-c2ccc(Cl)cc2Cl)n(-c2ccc(-c3nnn[nH]3)cc2)c1CO)C1CCCCC1 [Compound 1-25]

SMILES: Cc1c(C(=O)NN2CCCCC2)nn(-c2ccc(Cl)cc2Cl)c1-c1ccc(CCCCO)cc1 [Compound 4-2]
Ki (CB2 cannabinoid receptor; [7]): 43 nM | Ki (CB1 cannabinoid receptor; [8]): 2 nM | Selectivity CB1 (CB1 cannabinoid receptor; Table 9): 21

SMILES: Cc1c(C(=O)N2CCCCC2)nc(-c2ccc(Cl)cc2Cl)n1-c1ccc(Br)cc1 [Compound 1-13]
Ki (CB2 cannabinoid receptor; [1]): 2450 nM | Ki (CB1 cannabinoid receptor; [2]): 22 nM

SMILES: Cc1c(C(=O)N(C)C2CCCCC2)nc(-c2ccc(Cl)cc2Cl)n1-c1ccc(C#CCCO)cc1 [Compound 3-8]
Ki (CB2 cannabinoid receptor; Receptor Affinities Ki (nM) CB2, Table 8): 440 nM | Ki (CB1 cannabinoid receptor; [9]): 12 nM | Selectivity CB1 (CB1 cannabinoid receptor; Table 8): 36

SMILES: CN(C(=O)c1nc(-c2ccc(Cl)cc2Cl)n(-c2ccc(-c3nnn(C)n3)cc2)c1CO)C1CCCCC1 [Compound 1-27]
Ki (CB2 cannabinoid receptor; [1]): 620 nM | Ki (CB1 cannabinoid receptor; [2]): 19 nM

SMILES: Cc1c(C(=O)NN2CCCCC2)nc(-c2ccc(Cl)cc2Cl)n1-c1ccc(C#CCCO)cc1 [Compound 1-32]
Ki (CB2 cannabinoid receptor; [1]): 5090 nM | Ki (CB1 cannabinoid receptor; [2]): 6.2 nM

Ki (CB2 cannabinoid receptor; [1]): 24500 nM | Ki (CB1 cannabinoid receptor; [6]): 2290 nM
SMILES: Cc1c(C(=O)NN2CCCCC2)nc(-c2ccc(Cl)cc2Cl)n1-c1ccc(-c2nnnn2C)cc1 [Compound 1-17]

SMILES: Cc1c(C(=O)NN2CCCCC2)nc(-c2ccc(Cl)cc2Cl)n1-c1ccc(C#CCCC#N)cc1 [Compound 1-33]
Ki (CB2 cannabinoid receptor; [1]): 271 nM | Ki (CB1 cannabinoid receptor; [2]): 1.6 nM

SMILES: Cc1c(C(=O)NN2CCCCC2)nn(-c2ccc(Cl)cc2Cl)c1-c1ccc(CCCO)cc1 [Compound 4-1, 1-(2,4-Dichloro-phenyl)-5-[4-(3-hydroxy-propyl)-phenyl]-4-methyl-1H-pyrazole-3-carboxylic acid piperidin-1-ylamide]
Ki (CB2 cannabinoid receptor; [7]): 230 nM | Ki (CB1 cannabinoid receptor; [8]): 26 nM | Selectivity CB1 (CB1 cannabinoid receptor; Table 9): 8

SMILES: CN(C(=O)c1nc(-c2ccc(Cl)cc2Cl)n(-c2ccc(I)cc2)c1CO)C1CCCCC1 [Compound 1-11]
Ki (CB2 cannabinoid receptor; [1]): 1150 nM | Ki (CB1 cannabinoid receptor; [2]): 6.4 nM

SMILES: Cc1c(C(=O)NN2CCCCC2)nn(-c2ccc(Cl)cc2Cl)c1-c1ccc(C#CCCCCN)cc1 [Compound 5-15]
Ki (CB2 cannabinoid receptor; [4]): 1530 nM | Ki (CB1 cannabinoid receptor; [5]): 87 nM | Selectivity CB1 (CB1 cannabinoid receptor; Table 10): 17

SMILES: Cc1c(C(=O)NN2CCCCC2)nc(-c2ccc(Cl)cc2Cl)n1-c1ccc(-c2nnn(C)n2)cc1 [Compound 1-18]
Ki (CB2 cannabinoid receptor; [1]): 5080 nM | Ki (CB1 cannabinoid receptor; [2]): 6.5 nM

Ki (CB2 cannabinoid receptor; [1]): 22300 nM | Ki (CB1 cannabinoid receptor; [6]): 5760 nM
SMILES: O=C(NN1CCCCC1)c1nc(-c2ccc(Cl)cc2Cl)n(-c2ccc(-c3nnn[nH]3)cc2)c1CO [Compound 1-19]

SMILES: O=C(NN1CCCCC1)c1nn(-c2ccc(Cl)cc2Cl)c(-c2ccc(C#CCCO)cc2)c1CO [Compound 3-2]
Ki (CB2 cannabinoid receptor; Table 8, read-out: Receptor Affinities Ki (nM) CB2): 165 nM | Ki (CB1 cannabinoid receptor; [9]): 16 nM | Selectivity CB1 (CB1 cannabinoid receptor; Table 8): 10

SMILES: Cc1c(C(=O)NN2CCCCC2)nn(-c2ccc(Cl)cc2Cl)c1-c1ccc(C#CCN(C)C)cc1 [Compound 5-1]
Ki (CB2 cannabinoid receptor; [4]): 76 nM | Ki (CB1 cannabinoid receptor; [5]): 51 nM | Selectivity CB1 (CB1 cannabinoid receptor; Table 10): 1.5

SMILES: Cc1c(C(=O)NN2CCCCC2)nn(-c2ccc(Cl)cc2Cl)c1-c1ccc(C#CCCN)cc1 [Compound 5-13]
Ki (CB2 cannabinoid receptor; [4]): 732 nM | Ki (CB1 cannabinoid receptor; [5]): 20 nM | Selectivity CB1 (CB1 cannabinoid receptor; Table 10): 36

SMILES: Cc1c(C(=O)N(C)C2CCCCC2)nc(-c2ccc(Cl)cc2Cl)n1-c1ccc(-c2nnnn2C)cc1 [Compound 1-23]
Ki (CB2 cannabinoid receptor; [3]): 4150 nM | Ki (CB1 cannabinoid receptor; [2]): 982 nM

SMILES: CN(C(=O)c1nc(-c2ccc(Cl)cc2Cl)n(-c2ccc(Br)cc2)c1CO)C1CCCCC1 [Compound 1-5]
Ki (CB2 cannabinoid receptor; [1]): 3780 nM | Ki (CB1 cannabinoid receptor; [2]): 28.8 nM

SMILES: O=C(NC1CCCCC1)c1nc(-c2ccc(Cl)cc2Cl)n(-c2ccc(Br)cc2)c1CO [Compound 1-10]
Ki (CB2 cannabinoid receptor; [1]): 3030 nM | Ki (CB1 cannabinoid receptor; [2]): 4.6 nM

SMILES: Cc1c(C(=O)NN2CCCCC2)nn(-c2ccc(Cl)cc2Cl)c1-c1ccc(C#CCCO)cc1 [Compound 2-2]
Ki (CB2 cannabinoid receptor; Table 7, [3H] CP-55,940, read-out: CB2 Ki): 441 nM | Ki (CB1 cannabinoid receptor; CB1 Ki, Table 7, 0.8 nM [3H] CP-55,940): 19.7 nM

SMILES: O=C(NN1CCCCC1)c1nn(-c2ccc(Cl)cc2Cl)c(-c2ccc(CCCO)cc2)c1CO [Compound 4-6]
Ki (CB2 cannabinoid receptor; [7]): 66 nM | Ki (CB1 cannabinoid receptor; [8]): 21 nM | Selectivity CB1 (CB1 cannabinoid receptor; Table 9): 3

SMILES: Cc1cc(Br)ccc1-n1c(-c2ccc(Cl)cc2Cl)nc(C(=O)NN2CCCCC2)c1C [Compound 1-1]
Ki (CB2 cannabinoid receptor; [1]): 808 nM | Ki (CB1 cannabinoid receptor; [2]): 29.8 nM

SMILES: Cc1c(C(=O)NN2CCCCC2)nn(-c2ccc(Cl)cc2Cl)c1-c1ccc(C#CC(C)(C)C)cc1 [Compound 5-11]
Ki (CB2 cannabinoid receptor; [4]): 25 nM | Ki (CB1 cannabinoid receptor; [5]): 25 nM | Selectivity CB1 (CB1 cannabinoid receptor; Table 10): 1

Reference: patent US8410097B2 (priority 2005, dated 2013)
